Test system: cardiac β1-AR (position 389 genotype)
Format: in vivo, human
Settings: Gly389/Arg389 heterozygous heart failure patients; difference before vs after >6 months on a stable dose
Experimental: The study was approved by the University of Cincinnati Institutional Review Board and the patients gave informed consent. […] LVEF was determined by radionuclide ventriculography before initiation of drug treatment and after a maintenance period of >6 months on a stable dose. The change in LVEF was reported as the difference between values before and after drug treatment.

COc1ccccc1OCCNCC(O)COc1cccc2[nH]c3ccccc3c12 (stereo not shown) [carvedilol]
improvement in LVEF: improvement similar to that of Arg389-homozygous patients
